Results as given in US20260199564A1, “METHOD OF PREVENTING BLOOD COAGULATION AND DRUG-ELUTING IMPLANT FOR PERCUTANEOUS CORONARY INTERVENTION” (priority 2023, published 2026).

What was measured:
[1] = target: T1, CYP2C19 (Homo sapiens, UniProt P33261); assay: Cytochrome P450 inhibition in human liver microsomes using LC-MS/MS, CYP2C19; type: in vitro ADME
T1 construct: with pooled human liver microsomes; from tissue; host or cells: pooled human liver microsomes
Method: (§1) In IC50 shift experiments, CK (0.2 μL prepared in DMSO) was pre-incubated for 30 min at 37° C., at 8 different concentrations, with pooled human liver microsomes (0.1-1 mg/mL, depending on which enzyme was assessed) in the absence or presence of 1 mM NADPH in 100 μL of potassium phosphate buffer (100 mM, pH 7.4) and MgCl2 (2.5 mM). After the pre-incubation, a substrate mixture containing a probe substrate in 100 μL of potassium phosphate buffer (100 mM, pH 7.4), MgCl2 (2.5 mM), and NADPH (1 mM) was added for measurement of the corresponding P450 activities. Incubations were terminated by addition of 200 μL methanol. Samples were then extracted and centrifuged and the supernatant was subjected to validated LC-MS/MS analysis.

[2] = tested on: VCAM-1; assay: LPS-induced VCAM-1 mRNA expression in HUVECs; type: cell-based, human; conditions: 1, 3, 10 μM for 1 h prior to LPS (1 μg/ml) stimulation for 24 h
Method: (§2) HUVECs were treated for 1 h with ginsenoside CK (1 μM, 3 μM, and 10 μM) prior to LPS (1 μg/ml) stimulation for 24 h. (A) ICAM-1 (B) VCAM-1 mRNA expression. Values are means±SEM of 3 independent experiments. Statistical significance assessed by one-way ANOVA followed by Scheffe post-hoc test for multiple comparisons (***P<0.01, *P<0.05 vs LPS).
(§3) Treatment of HUVECs with LPS (1 μg/ml) increased ICAM-1 and VCAM-1 mRNA expression. Twenty-four hours after LPS treatment, maximal expression of ICAM-1 and VCAM-1 was attained. To determine whether LPS-stimulated ICAM-1 and VCAM-1 mRNA expression is affected by ginsenoside CK, HUVECs were treated for 1 h with ginsenoside CK (1 μM, 3 μM, and 10 μM) prior to LPS (1 μg/ml) stimulation for 24 h.

[3] = tested on: ICAM-1; assay: LPS-induced ICAM-1 mRNA expression in HUVECs; type: cell-based, human; conditions: 1, 3, 10 μM for 1 h prior to LPS (1 μg/ml) stimulation for 24 h
Method: as §2, §3

[4] = tested on: Human platelets; assay: Platelet aggregation test (anticoagulant test), collagen-treated platelet-rich plasma; type: cell-based; conditions: PRP, 5 μg/ml collagen, CK 0-80 μM
Method: • a. A 20 mM CK stock solution is prepared with DMSO and is diluted with 1×PBS to the different working concentrations (0, 62.5, 125, 250, 500, 1000, and 2000 μM) before experiments.
The donator should rest and fast for 12 h and not smoke before blood collection. Medication such as antihistamines, antibiotics, Aspirin, and anti-inflammatory drugs are not allowed to take 10-14 days before tests due to the potential of affecting platelet function.
To ensure the absence of coagulation, the blood sample should be fully mixed with the anticoagulant and stored at 24-27° C. It is recommended to conduct the platelet aggregation test within 30-150 min after blood sample collection.
Slightly invert the blood collection tubes 3-4 times to resuspend the blood cells. Centrifuge the samples at 170×g for 7 min and transfer the supernatants to the new tubes. The samples should be used within 5-10 min after separation; otherwise, the samples should be stored at 4° C. to avoid agglutination. […]
To test the effect of CK on the function of platelet aggregation, different concentrations of CK (0, 2.5, 5, 10, 20, 40, and 80 μM) are added to 0.25 ml PRP. […] OD value is measured with a spectrometer at 650 nm, and the value is converted into an aggregate percentage.
The aggregation percentage of platelet is calculated with the following formula: […]

[5] = target: T2, CYP3A4 (Homo sapiens, UniProt P08684); assay: Cytochrome P450 inhibition in human liver microsomes using LC-MS/MS, CYP3A4; type: in vitro ADME; conditions: for IC50 shift (fold difference): ratio of IC50 with −NADPH to IC50 with +NADPH in the 30 min pre-incubation; for IC50: pooled human liver microsomes
T2 construct: with pooled human liver microsomes; from tissue; host or cells: pooled human liver microsomes
Method: as §1

[6] = tested on: HUVECs; assay: HUVEC cell viability by CCK-8 assay; type: cell-based, human; conditions: 1 μM, 3 μM, and 10 μM alone for 24 h
[7] = Releasing kinetics of ginsenoside CK from three-layer coated stent (CK DES), FIG. 2; type: physicochemical
[8] = target: T3, CYP2C8 (Homo sapiens, UniProt P10632); assay: Cytochrome P450 inhibition in human liver microsomes using LC-MS/MS, CYP2C8; type: in vitro ADME
T3 construct: with pooled human liver microsomes; from tissue; host or cells: pooled human liver microsomes
T3 sequence (P10632 1-490): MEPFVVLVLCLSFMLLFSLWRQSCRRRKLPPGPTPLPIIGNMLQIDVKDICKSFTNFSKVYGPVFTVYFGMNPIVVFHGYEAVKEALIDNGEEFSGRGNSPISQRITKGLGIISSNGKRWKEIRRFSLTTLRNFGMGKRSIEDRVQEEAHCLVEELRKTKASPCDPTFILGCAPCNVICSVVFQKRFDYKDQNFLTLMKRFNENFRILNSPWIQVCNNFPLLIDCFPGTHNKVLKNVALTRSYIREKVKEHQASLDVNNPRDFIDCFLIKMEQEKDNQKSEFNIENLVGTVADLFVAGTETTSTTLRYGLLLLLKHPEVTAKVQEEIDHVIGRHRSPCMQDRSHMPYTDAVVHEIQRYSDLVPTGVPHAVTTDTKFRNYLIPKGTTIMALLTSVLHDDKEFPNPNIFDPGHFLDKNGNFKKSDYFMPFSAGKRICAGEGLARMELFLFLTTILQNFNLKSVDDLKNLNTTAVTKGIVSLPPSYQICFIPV
Method: as §1

[9] = Releasing kinetics of ginsenoside CK from two-layer coated balloon (CK DEB), FIG. 4; type: physicochemical
[10] = 50 μM, 30 min pre-incubation in the presence or absence of NADPH

T2 sequence (P08684 whole entry): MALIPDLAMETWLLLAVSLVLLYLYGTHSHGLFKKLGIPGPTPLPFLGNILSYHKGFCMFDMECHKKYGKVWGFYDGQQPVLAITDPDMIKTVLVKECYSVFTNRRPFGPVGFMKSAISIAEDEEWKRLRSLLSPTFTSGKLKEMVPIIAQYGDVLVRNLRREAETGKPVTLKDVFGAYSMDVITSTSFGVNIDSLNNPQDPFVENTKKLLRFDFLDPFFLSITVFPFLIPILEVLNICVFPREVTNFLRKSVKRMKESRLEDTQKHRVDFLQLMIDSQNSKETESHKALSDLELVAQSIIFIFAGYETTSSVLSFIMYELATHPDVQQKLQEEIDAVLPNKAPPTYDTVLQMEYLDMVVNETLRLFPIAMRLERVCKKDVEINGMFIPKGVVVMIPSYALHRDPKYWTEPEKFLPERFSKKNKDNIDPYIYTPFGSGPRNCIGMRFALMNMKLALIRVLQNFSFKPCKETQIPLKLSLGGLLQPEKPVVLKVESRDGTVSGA
T1 sequence (P33261 whole entry): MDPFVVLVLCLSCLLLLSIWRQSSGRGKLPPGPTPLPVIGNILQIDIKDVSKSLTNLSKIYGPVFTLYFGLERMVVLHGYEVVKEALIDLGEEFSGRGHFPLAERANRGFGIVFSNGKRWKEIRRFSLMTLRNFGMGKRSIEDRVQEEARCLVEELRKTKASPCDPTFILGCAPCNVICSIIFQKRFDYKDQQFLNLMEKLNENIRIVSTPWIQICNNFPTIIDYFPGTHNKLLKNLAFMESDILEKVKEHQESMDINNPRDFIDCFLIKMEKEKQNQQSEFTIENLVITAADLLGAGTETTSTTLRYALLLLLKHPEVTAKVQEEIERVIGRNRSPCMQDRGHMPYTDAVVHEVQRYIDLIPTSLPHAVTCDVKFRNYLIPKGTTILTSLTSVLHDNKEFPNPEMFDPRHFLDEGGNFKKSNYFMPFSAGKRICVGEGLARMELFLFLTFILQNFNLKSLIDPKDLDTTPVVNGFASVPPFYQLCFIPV

SMILES: CC(C)=CCC[C@](C)(O[C@@H]1O[C@H](CO)[C@@H](O)[C@H](O)[C@H]1O)[C@H]1CC[C@]2(C)[C@@H]1[C@H](O)C[C@@H]1[C@@]3(C)CC[C@H](O)C(C)(C)[C@@H]3CC[C@]12C [CK, Ginsenoside compound K]
- inhibition at concentration of 50 μM [1, 10]: did not inhibit
- IC50 ([1]; pooled human liver microsomes, substrate S-Mephenytoin): > 50 µM
- LPS-stimulated VCAM-1 mRNA expression [2]: significantly inhibited
- LPS-stimulated ICAM-1 mRNA expression [3]: significantly inhibited
- platelet aggregation level after treating the platelet with CK [4]: decreased
- IC50 shift (fold difference) ([5]; CYP3A4(M), midazolam as substrate): 0.98 fold
- IC50 shift (fold difference) ([5]; CYP3A4(T), testosterone as substrate): 1.06 fold
- IC50 ([5]; substrate Midazolam): 9.76 µM
- IC50 ([5]; substrate Testosterone): 13.9 µM
- cell viability [6]: did not influence cell viability
- amount of residual drug in the stent ([7]; after 90 days of drug release): beyond the detection/quantitation limit
- drug released (initial burst) ([7]; within one month): ~80%
- inhibition at concentration of 50 μM [8, 10]: did not inhibit
- IC50 ([8]; pooled human liver microsomes, substrate Amodiaquine): > 50 µM
- amount of residual drug ([9]; after 90 days of drug release): beyond the detection/quantitation limit
- drug released (initial burst) ([9]; within one month): ~80%
